Results on three molecules are retold here after patent publication US12257238B2, “Magnesium biotinate compositions and methods of use” (Nutrition21, LLC, priority 2016, dated 2025).

Values after ≈ are worked out from the molar mass of the structure shown. Where two headings read alike, the source gives them in different places.

Series [1] can be described thus: Solubility of magnesium D-biotinate. Particulars: for Solubility in water: compared with biotin.
Another series has as its system Liver cGMP. Briefly: Liver cGMP in rats. It counts as in vivo, male Sprague-Dawley rats. The following applies: 30 days, mean.
A short description of series [2]: Absorption study in rats: serum, liver and brain biotin. The following applies: for Liver Biotin / Serum Biotin / Brain Biotin: 30 days, mean.
The nature of series [3]: Stability of magnesium D-biotinate (storage, hygroscopicity, light). The class given is physicochemical.
The conditions of series [4]: cited from earlier work.
A further series can be described thus: in vivo. Particulars: male, Sprague-Dawley, rat, serum, oral.
[5] abbreviates: 0.01 mg/kg body weight, listed as MgB, 0.01 mg/kg.
Where [6] appears, read: 1 mg/kg body weight, listed as MgB, 1 mg/kg.
Where [7] appears, read: 100 mg/kg body weight, listed as MgB, 100 mg/kg.
Where [8] appears, read: 1 mg/kg body weight, listed as B, 1 mg/kg.
The mark [9] stands for this setting: 100 mg/kg body weight, listed as B, 100 mg/kg.

On to `O=C(O)CCCC[C@@H]1SC[C@@H]2NC(=O)N[C@@H]21` [magnesium D-biotinate], for which the Solubility in series [1] (Water) was ~10000 µg/mL (≈ 40.9 mM); in series [1] (water), ≥ 10000 µg/mL. For the same molecule, the “Solubility in water” value is “unexpectedly soluble in water” in series [1] (water) and “significantly improved solubility” in series [1] (water, listed as magnesium biotinate). For the same molecule, the “Liver cGMP” value amounted to 8.60 pmol/mg protein with Liver cGMP (0.01 mg/kg body weight), 13.04 pmol/mg protein in the series on Liver cGMP (1 mg/kg body weight) and 17.07 pmol/mg protein with Liver cGMP (100 mg/kg body weight). Further, the “Liver Biotin” value in series [2] (setting [5]) worked out at 0.03 nmol/g; in series [2] (setting [6]), 0.71 nmol/g; in series [2] (setting [7]), 1.62 nmol/g. Also, the figures for the “Serum Biotin” value in series [2] (setting [5]), in series [2] (setting [6]) and in series [2] (setting [7]) were 23.41 nmol/L, 171.13 nmol/L and 5161.43 nmol/L, respectively. Moreover, the “Brain Biotin” value was found to be 0.66 nmol/g in series [2] (setting [6]) and 1.65 nmol/g in series [2] (setting [7]). In addition, the Absorption entry in series [2] (compared to biotin) is given as “higher absorption”. The Storage stability entry in series [3] (30 days at 40% relative humidity and 25° C.) is recorded as “stable”; in series [3] (30 days at 40% relative humidity and 25° C., listed as Magnesium biotinate), “no signs of degradation”; in series [3] (30 days at 75% relative humidity and 40° C.) it was “stable”; in series [3] (30 days at 75% relative humidity and 40° C., listed as Magnesium biotinate), “no signs of degradation”; in series [3] (room temperature), “stable”. Further, the “Stability on exposure to light” value in series [3] (amorphous solid) was “stable upon exposure to light”; in series [3] (amorphous solid, listed as Magnesium biotinate), “did not change color”. Further, the Hygroscopicity result in series [3] (amorphous solid, as measured by weight) is “not hygroscopic”.
`[O]=[Mg]` [MgO, magnesium oxide]: the “Solubility” value in series [4] (Benzene) is “salts insoluble”; in series [4] (Dimethyl sulfoxide (DMSO)), “MgO insoluble;”; in series [4] (Ethanol) it was “MgO insoluble;”; in series [4] (Methanol), “MgO insoluble;”; in series [4] (N,N-Dimethylformamide (DMF)) it was “MgO insoluble;”; in series [4] (Water), “MgO insoluble;”.
`O=C(O)CCCC[C@@H]1SC[C@@H]2NC(=O)N[C@@H]21` [Biotin, D-biotin]: the “Liver cGMP” value is given as 8.46 pmol/mg protein in the series with Liver cGMP (0.01 mg/kg body weight), 12.01 pmol/mg protein with Liver cGMP (1 mg/kg body weight) and 14.68 pmol/mg protein in the series with Liver cGMP (100 mg/kg body weight). In addition, the “Brain Biotin” value in series [2] (0.01 mg/kg body weight) is listed as 0.14 nmol/g; in series [2] (setting [8]) it was 0.42 nmol/g; in series [2] (setting [9]), 1.37 nmol/g. Besides, the “Liver Biotin” value turned out to be 0.02 nmol/g in series [2] (0.01 mg/kg body weight, listed as B, 0.01 mg/kg); 0.56 nmol/g in series [2] (setting [8]); 1.38 nmol/g in series [2] (setting [9]). Besides, the concentration at 30 days is 23.6 nM in the series “in vivo” (0.01 mg/kg), 137 nM in “in vivo” (1 mg/kg) and 3520 nM in the series “in vivo” (100 mg/kg). In addition, the “Solubility” value in series [4] (Benzene) was “Soluble”; in series [4] (Dimethyl sulfoxide (DMSO)), 4.9 g/100 mL; in series [4] (Ethanol), 80 mg/100 mL; in series [4] (Methanol), 80 mg/100 mL; in series [4] (N,N-Dimethylformamide (DMF)), 170 mg/100 mL; in series [4] (N,N-dimethylformamide, Merck Index), 1.7 mg/mL (≈ 6.96 mM). Moreover, the Solubility is given as 22 mg/100 mL in series [4] (Water) and “insoluble” in series [4] (other common organic solvents, Merck Index).
